The source made the active and inactive calls. The calls are words filed in the database; no cut-off is given here.
What was measured:
[1] = species on record: Felis catus; assay: In vitro effect of Gamma-aminobutyric acid enhancement on single neurons of cat spinal cord (No significant activity); assay type: functional
[2] = biological target: T1, GABA transporter (Rattus norvegicus, UniProt P31647+P23978+P31646+P48056); assay type: functional, subcellular, Brain
Description: In vitro effect on GABA uptake in a crude preparation of synaptosomes from rat brain.

[3] = species on record: Felis catus; assay: In vitro effect of glycine antagonism on single neurons in the cat spinal cord; Glycine antagonists are indicated by the Delta symbol.; assay type: functional, organism-based; conditions: filed as antagonist
[4] = I/U ratio for neutral amino acids.; assay type: functional
[5] = biological target: GABA-A receptor; anion channel
Description: In vitro affinity for GABA binding sites on purified synaptic membranes from rat brain.

[6] = physchem
Description: Dissociation constant (pKa)

[7] = biological target: T2, GABA-A receptor; anion channel (Homo sapiens) (UniProt P14867+P47870+P18507+P28472+P48169+Q99928+Q9UN88+P34903+O00591+O14764+Q8N1C3+P18505+P78334+P47869+P31644+Q16445); conditions: Felis catus; Spinal cord; filed as agonist
[8] = biological target: T2, GABA-A receptor; anion channel (Homo sapiens); assay: In vitro effect on Gamma-aminobutyric acid agonism on single neurons of cat spinal cord (- is less active than GABA); assay type: functional, tissue-based; conditions: Felis catus, filed as partial agonist, target entry is the homologue from another species
[9] = species on record: Felis catus; assay: In vitro effect of Gamma-aminobutyric acid enhancement on single neurons of cat spinal cord (ND = no data, No significant activity); assay type: functional
[10] = species on record: Felis catus; assay: In vitro effect of glycine antagonism on single neurons of cat spinal cord; Glycine antagonists are indicated by Delta symbol.; assay type: functional, organism-based; conditions: filed as antagonist
[11] = species on record: Felis catus; assay: In vitro effect of GABA enhancement on single neurons in the cat spinal cord;; assay type: functional, organism-based
[12] = biological target: Gamma-aminobutyric acid receptor subunit gamma-1 (Rattus norvegicus, UniProt P23574); assay: In vitro affinity for GABA binding sites on purified synaptic membranes from rat brain
Chain of Gamma-aminobutyric acid receptor subunit gamma-1 (P23574 whole entry): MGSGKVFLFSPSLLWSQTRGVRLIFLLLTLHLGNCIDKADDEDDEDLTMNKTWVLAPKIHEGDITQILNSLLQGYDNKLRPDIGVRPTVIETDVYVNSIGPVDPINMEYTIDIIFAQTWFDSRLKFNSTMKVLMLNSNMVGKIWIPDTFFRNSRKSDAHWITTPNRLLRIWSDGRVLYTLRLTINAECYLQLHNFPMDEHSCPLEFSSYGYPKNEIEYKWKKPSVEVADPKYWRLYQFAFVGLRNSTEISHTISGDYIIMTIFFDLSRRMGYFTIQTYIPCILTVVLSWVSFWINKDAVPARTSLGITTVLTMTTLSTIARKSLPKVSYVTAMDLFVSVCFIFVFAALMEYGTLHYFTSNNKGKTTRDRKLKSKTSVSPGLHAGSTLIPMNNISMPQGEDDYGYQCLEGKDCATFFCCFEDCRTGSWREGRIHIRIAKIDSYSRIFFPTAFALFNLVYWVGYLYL

[13] = biological target: T1, GABA transporter; assay: In vitro effect on GABA uptake in a crude preparation of synaptosomes from rat brain; assay type: functional, subcellular
[14] = I/U ratio for neutral amino acids; assay type: functional
[15] = species on record: Felis catus; assay: In vitro effect of Gamma-aminobutyric acid enhancement on single neurons of cat spinal cord; assay type: functional

IC50 [2] [µM] | IC50 [5] [µM] | pKa [6] | SMILES | Ratio [4] | other results
> 500 | 15 | 4.8 | Oc1noc2c1CCNCC2 | 4000 | GABA enhancement [1]: inactive; Glycine antagonism [3]: Antagonist
– | – | 7.4 | COC(=O)N1CCc2snc(O)c2C1 | – | –
– | – | 7.6 | COC(=O)N1CCc2snc(O)c2CC1 | – | –
– | – | 7.1 | COc1noc2c1CCNC2 | – | –
400 | 31 | – | Oc1nsc2c1CCNCC2 | 200 | GABA enhancement [9]: inactive; Glycine antagonism [10]: Antagonist
230 | > 100 | 6.1 | Oc1nsc2c1CNCC2 | 63 | GABA enhancement [15]: Active
– | – | 7.3 | COC(=O)N1CCc2c(O)nsc2C1 | – | –

The remaining lines, values behind:

SMILES | IC50 [2] [µM] | IC50 [5] [µM] | pKa [6] | Ratio [4] | other results
NCCCC(=O)O | – | – | – | – | GABA agonism [7]: Agonist
COc1noc2c1CNCC2 | – | – | 7.7 | – | –
Oc1nsc2c1CCNC2 | 220 | 42 | 6.1 | 16 | GABA agonism [8]: Partial agonist
COC(=O)N1CCc2c(O)noc2C1 | – | – | 5.3 | – | –
Oc1noc2c1CNCC2 | – | – | – | – | GABA enhancement [11]: Active; IC50 [12]: 72 µM; IC50 [13]: 160 µM; Ratio [14]: 2500
O=C(O)N1CCc2onc(O)c2CC1 | – | – | 5.6 | – | –

Source: ChEMBL document CHEMBL1122237, “4,5,6,7-Tetrahydroisothiazolo[5,4-c]pyridin-3-ol and related analogues of THIP. Synthesis and biological activity” (J Med Chem, 1983)
